How the values were obtained:
[1] = tested on: non-cancerous HEK293T cells; assay: MTT cell viability assay, HEK293T; format: cell-based, human; details: concentrations tested in the previous assays
Procedure: For cytotoxicity assays, 1×10^4 cells were seeded per well into a 96-well plate. After 24 h cells were treated with the indicated inhibitors for 72 h and a MTT colorimetric cell viability assay was performed following manufacturer's instructions (Sigma Aldrich, St Louis, Mo.). Absorbance was measured at 570 and 630 nm using a Multiskan Plus Reader (Nanoquant Infinite M200 Tecan Trading AG, Switzerland). Dose-response curves were designed with Graph Pad Prism Software and the half-maximal inhibitory concentration (IC50) values were calculated. Represented data are the mean±SEM of at least three independent experiments with six replicates per condition.

[2] = tested on: mouse-cryopreserved hepatocytes; assay: Hepatocyte stability, mouse; format: in vitro ADME; details: 3 μM
Procedure: (§1) Test compound (final substrate concentration 3 μM; final DMSO concentration 0.25%) were pre-incubated at 37° C., prior to the addition of a suspension of cryopreserved hepatocytes (final cell density 0.5×10^6 viable cells/mL in Williams E media supplemented with 2 mM L glutamine and 25 mM HEPES) to initiate the reaction. The reactions were stopped with acetonitrile containing internal standard at the appropriate time points ([…]). The termination plates were centrifuged at 2500 rpm at 4° C. for 30 minute to precipitate the protein. Following the hepatocyte stability assays, the samples were utilized for metabolite profiling. Hepatocyte stability in mouse and human was performed by using the incubation of tested compound (3 μM) with cryopreserved hepatocytes in suspension. Samples were removed at 6 time points over the course of a 60 min experiment and remaining test compound at each time point was analysed by using LC-MS/MS. Then, data was analysed and an intrinsic clearance (CLint) with standard error and half-life (t½) reported.

LoVo cells [3] = assay: Phase-contrast cell phenotype, LoVo; format: cell-based
Procedure: (§2) MDCK, HEK293T, HepG2, MCF7 and ACHN cells were cultured in Dulbecco's Modified Eagles Medium (DMEM). MDCK stably expressing Hakai cells (Hakai-MDCK) were previously reported and were growth in DMEM with G418 (800 μg/ml). […] LoVo and PC-3 cells were cultured in F-12K Medium (Kaighn's Modification of Ham's F-12 Medium) and HT-29 and HCT116 cells in McCoy's 5a Medium Modified. 5637 cells were cultured in RPMI medium. All culture media were supplemented with 1% penicillin/streptomycin and 10% of heat-inactivated fetal bovine serum (FBS) at 37° C. in a humidified incubator with 5% CO2. Cells were monthly tested for mycoplasma contamination and used only for 1-3 months after defrosted. LoVo and HT29 cells were authenticated with the StemElite ID system (Promega). For phase-contrast images, culture cells were photographed with a Nikon Eclipse-TI microscope.

[4] = tested on: Hakai-transformed MDCK cells; assay: Phase-contrast cell phenotype, Hakai-MDCK; format: cell-based; details: Hakai-transformed MDCK cells (mesenchymal phenotype)
Procedure: as §2

LoVo cells [5] = assay: Western blotting of EMT markers, LoVo; format: cell-based; details: 48 h
Procedure: For western blot analysis, cells were treated with the indicated inhibitors for 48 h and the whole cell extracts were obtained as described previously. Twenty micrograms of lysates were resolved on a 10% polyacrilamide SDS-PAGE followed by western blot analysis performed as previously described. For immunofluorescence assays cells were grown for 24 h on glass coverslips and treated with the indicated inhibitors for 48 h. Cells were fixed with 4% PFA for 15 min, permeabilized with 0.5% […] and incubated with E-cadherin antibody for 2 h. Coverslips were incubated with fluorescein-tagged secondary antibody (Dakopatts, Sweden) for […]. Finally coverslips were mounted with ProLong Gold antifade reagent (LifeTech, UK) and images were taken in epifluorescence microscope (Olympus) using 40× objective. […] One set of SIM Synthetic Focus images were taken in the DAPI channel for Hoechst 33342 staining, and another set of images were taken in the FITC channel for anti-E-cadherin-AlexaFluor488 labeling and analysed by Structured Illumination Microscopy (SIM™) platform to image the cells and Vala's CyteSeer® Cell-Cell Junction Algorithm to quantify the degree of expression and intracellular location of E-cadherin Vala's CyteSeer® Software can also measure relative DNA content by analyzing Total Integrated Intensity (TII) of the Nuclear Image (Ni) on the Nuclear Mask (Nm). […]

Hakai-MDCK cells = assay: BrdU proliferation assay, Hakai-MDCK; format: cell-based; details: 48 h
Procedure: For BrdU assays, 1×10^4 of indicated cells were plated per well into a 96-well plate. After 24 h, cells were treated with the indicated inhibitors for 48 h. Three independent experiments were plated with six replicates per each condition. Cells were treated with […] BrdU for 2 h. BrdU incorporation into newly synthesized DNA was measured using a cell proliferation colorimetric immunoassay kit according to the manufacturer's instructions (Roche, Switzerland). Results are expressed as mean±S.D. Results are represented as percentage of positive cells (mean±S.D) of three independent experiments.

LoVo cells [6] = assay: Invasion assay, LoVo; format: cell-based; details: treated 48 h
Procedure: For invasion assays, cells were treated with Hakin-1 or DMSO as vehicle for 48 h using 1% FBS during the last 24 hours. 3×10^5 MDCK, MDCK-Hakai or LoVo cells were seeded in a cell invasion chamber (Cell invasion assay kit, Chemicon International) containing medium with 2% FBS. After 72 hours for MDCK and MDCK-Hakai Invasive and 16 h for LoVo cells, invasive cells invaded that reach the lower chamber containing 30% FBS were fixed and stained with crystal violet (Sigma Aldrich, St Louis, Mo.) following the manufacturer's specifications. For migration assays, HT29 cells were cultured with Hakin-1 or DMSO as vehicle for 48 h, using medium without serum the last 24 h. In the cell migration chamber were seeded 3×10^5 HT29 cells (Cell migration kit, Millipore, Bedford, Mass.) containing medium without serum. After 16 h, migrated cells in the lower chamber containing serum with 30% FBS were stained with crystal violet and counted following the manufacturer's specifications. For both invasion and migration assays cells were counted in five fields photographed with an Olympus microscope using a 20× objective, experiments were performed in triplicates for each condition and the assays were repeated at least three times. Results are expressed as mean±SD.

[7] = Hepatocyte stability, mouse; format: in vitro ADME; details: cryopreserved mouse hepatocytes in suspension, read-out: half-life (T½)
Procedure: as §1

[8] = Hepatocyte stability, human; format: in vitro ADME; details: cryopreserved human hepatocytes in suspension, read-out: estimated half-life
Procedure: as §1

Row | Compound | cytotoxic effect (cell viability, MTT) [1] | compound remaining after 60 min [2] | cell phenotype by phase contrast (LoVo cells [3]) | cell phenotype by phase contrast [4] | EMT markers (western blotting) (LoVo cells [5]) | cell proliferation (BrdU) (Hakai-MDCK cells) | cell invasion (LoVo cells [6]) | half-life at 3 μM [7] [min] | half-life at 3 μM [8] [h]
1 | O=C(O)c1ccc(-n2nnnc2SCC(O)c2ccc([N+](=O)[O-])cc2)cc1 (stereo not drawn) [MKH1] | no cytotoxic effect | 95%-100% | – | – | – | – | – | – | –
2 | O=C(O)c1ccc(-n2nnnc2SCC(=O)c2ccc([N+](=O)[O-])cc2)cc1 [Hakin-1, 4-(5-[2-(4-nitrophenyl)-2-oxoethyl]thiol-1H-tetrazol-1-yl)benzoic acid] | – | – | modestly induce an epithelial phenotype | induction of an epithelial phenotype | confirmed these results | suppress proliferation | strongly reduced cell invasion | 5.92 | 2.33
